# Reference: ChEMBL document CHEMBL3714766, “Tetrahydroisoquinoline compounds and their use as pyruvate dehydrogenase kinase inhibitors” (2015)
# Molecular target: Pyruvate dehydrogenase kinase (Homo sapiens, UniProt Q15119+Q15120+Q16654+Q15118)
# Test: Binding affinity to pyruvate dehydrogenase kinase (unknown origin) by VER-00160364 probe based fluorescence polarization assay
row,SMILES,IC50
1,COCCNc1ncc(C)c(-c2ccc3c(c2)CC[C@H](C)N3C(=O)c2ccc(O)cc2O)n1,100 nM
2,Cc1cnc(NC2CCCC2)nc1-c1ccc2c(c1)CC[C@H](C)N2C(=O)c1ccc(O)cc1O,1000 nM
3,C[C@H]1CCc2cc(-c3ccc(N4CCCC4)nn3)ccc2N1C(=O)c1ccc(O)cc1O,100 nM
4,C[C@H]1CCc2cc(-c3ccnc(N)n3)ccc2N1C(=O)c1ccc(O)cc1O,100 nM
5,Cc1nccn1-c1ccc(-c2ccc3c(c2)CC[C@H](C)N3C(=O)c2ccc(O)cc2O)nn1,100 nM
6,C[C@H]1CCc2cc(-c3cc4cncnc4[nH]3)ccc2N1C(=O)c1ccc(O)cc1O,10 nM
7,Cc1cnc(NCCN(C)C)nc1-c1ccc2c(c1)CC[C@H](C)N2C(=O)c1ccc(O)cc1O,1000 nM
8,Cc1nc(N(C)C)nc(-c2ccc3c(c2)CC[C@H](C)N3C(=O)c2ccc(O)cc2O)c1C,1000 nM
9,Cc1cc(-c2ccc3c(c2)CC[C@H](C)N3C(=O)c2ccc(O)cc2O)nnc1Cl,100 nM
10,Cc1cc(S(=O)(=O)N2CCCC2)cnc1-c1ccc2c(c1)CC[C@H](C)N2C(=O)c1ccc(O)cc1O,100 nM
11,Cc1cc(S(=O)(=O)N(C)C)cnc1-c1ccc2c(c1)CC[C@H](C)N2C(=O)c1ccc(O)cc1O,10 nM
12,C[C@H]1CCc2cc(-c3ccc(OCCN4CCCC4)nn3)ccc2N1C(=O)c1ccc(O)cc1O,1000 nM
13,C[C@H]1CCc2cc(-c3cc4nccnc4cn3)ccc2N1C(=O)c1ccc(O)cc1O,100 nM
14,C[C@H]1CCc2cc(-c3ccc(N)nn3)ccc2N1C(=O)c1ccc(O)cc1O,100 nM
15,Cc1cc(-c2ccc3c(c2)CC[C@H](C)N3C(=O)c2ccc(O)cc2O)cnc1Cl,1000 nM
16,C[C@H]1CCc2cc(-c3ccc(-n4ccnc4)nn3)ccc2N1C(=O)c1ccc(O)cc1O,100 nM
17,COc1cc(-c2ccc3c(c2)CC[C@H](C)N3C(=O)c2ccc(O)cc2O)cnc1OC,100 nM
18,Cc1cn(-c2ccc(-c3ccc4c(c3)CC[C@H](C)N4C(=O)c3ccc(O)cc3O)nn2)cn1,100 nM

row,SMILES,IC50
1,CSc1nc2c(c(-c3ccc4c(c3)CC[C@H](C)N4C(=O)c3ccc(O)cc3O)n1)CCC2,1000 nM
2,C[C@H]1CCc2cc(-c3ncncc3C#N)ccc2N1C(=O)c1ccc(O)cc1O,100 nM
3,CSc1nc(Cl)cc(-c2ccc3c(c2)CC[C@H](C)N3C(=O)c2ccc(O)cc2O)n1,1000 nM
4,C[C@H]1CCc2cc(-c3ccncc3C(F)(F)F)ccc2N1C(=O)c1ccc(O)cc1O,100 nM
5,NC(=O)COc1ccc2c(c1)CCCN2C(=O)c1ccc(O)cc1O,1000 nM
6,C[C@H]1CCc2cc(-c3nc(C(F)(F)F)ccc3C(F)(F)F)ccc2N1C(=O)c1ccc(O)cc1O,1000 nM
7,CCOC(=O)c1nc(C)nc(-c2ccc3c(c2)CC[C@H](C)N3C(=O)c2ccc(O)cc2O)c1C,1000 nM
8,Cc1cc(S(=O)(=O)NCc2ccn(C)n2)cnc1-c1ccc2c(c1)CC[C@H](C)N2C(=O)c1ccc(O)cc1O,100 nM
9,Cc1cc(-c2ccc3c(c2)CC[C@H](C)N3C(=O)c2ccc(O)cc2O)cnc1N,100 nM
10,Cc1cc(S(=O)(=O)N2CCCCC2)cnc1-c1ccc2c(c1)CC[C@H](C)N2C(=O)c1ccc(O)cc1O,10 nM
11,Cc1cc(CNc2ccc(-c3ccc4c(c3)CC[C@H](C)N4C(=O)c3ccc(O)cc3O)c(C)n2)on1,100 nM
12,COc1cc2ncnc(-c3ccc4c(c3)CC[C@H](C)N4C(=O)c3ccc(O)cc3O)c2cc1OC,1000 nM
13,CNc1nccc(-c2ccc3c(c2)CC[C@H](C)N3C(=O)c2ccc(O)cc2O)n1,100 nM
14,Cc1cnc(OCCN(C)C)nc1-c1ccc2c(c1)CC[C@H](C)N2C(=O)c1ccc(O)cc1O,100 nM
15,COc1cc(-c2ccc3c(c2)CC[C@H](C)N3C(=O)c2ccc(O)cc2O)ncn1,1000 nM
16,C[C@H]1CCc2cc(-c3ccc(NC4CC4)nn3)ccc2N1C(=O)c1ccc(O)cc1O,1000 nM
17,C[C@H]1CCc2cc(-c3ccc(N4CCOCC4)nn3)ccc2N1C(=O)c1ccc(O)cc1O,1000 nM
18,Cc1cc(S(=O)(=O)NCCN(C)C)cnc1-c1ccc2c(c1)CC[C@H](C)N2C(=O)c1ccc(O)cc1O,10 nM

# The remaining lines, values ahead:
row,IC50,SMILES
1,100 nM,Cc1c(Cl)nc(Cl)nc1-c1ccc2c(c1)CC[C@H](C)N2C(=O)c1ccc(O)cc1O
2,100 nM,C[C@H]1CCc2cc(-c3nc4ccccc4nc3C(F)(F)F)ccc2N1C(=O)c1ccc(O)cc1O
3,1000 nM,COc1ccc(-c2ccc3c(c2)CC[C@H](C)N3C(=O)c2ccc(O)cc2O)c(Cl)c1
4,1000 nM,C[C@H]1CCc2cc(-c3nc(C(F)(F)F)nc4ccccc34)ccc2N1C(=O)c1ccc(O)cc1O
5,100 nM,C[C@H]1CCc2cc(-c3cc4occc4cn3)ccc2N1C(=O)c1ccc(O)cc1O
6,1000 nM,C[C@H]1CCc2cc(-c3nc(-c4ccsc4)nc4ccccc34)ccc2N1C(=O)c1ccc(O)cc1O
7,100 nM,C[C@H]1CCc2cc(-c3nc4ccc(Cl)cc4cc3CO)ccc2N1C(=O)c1ccc(O)cc1O
8,100 nM,CNc1ccc(-c2ccc3c(c2)CC[C@H](C)N3C(=O)c2ccc(O)cc2O)c(C)n1
9,100 nM,Cc1cncnc1-c1ccc2c(c1)CC[C@H](C)N2C(=O)c1ccc(O)cc1O
10,10 nM,Cc1cc(Cl)nnc1-c1ccc2c(c1)CC[C@H](C)N2C(=O)c1ccc(O)cc1O
11,100 nM,C[C@H]1CCc2cc(-c3nncc4ccccc34)ccc2N1C(=O)c1ccc(O)cc1O
12,100 nM,C[C@H]1CCc2cc(-c3ncnc4ccc(Cl)cc34)ccc2N1C(=O)c1ccc(O)cc1O
13,100 nM,CCc1nccnc1-c1ccc2c(c1)CC[C@H](C)N2C(=O)c1ccc(O)cc1O
14,10000 nM,C[C@H]1CCc2cc(-c3nc4cc(Cl)ccc4o3)ccc2N1C(=O)c1ccc(O)cc1O
15,100 nM,CC(=O)Nc1ccc(-c2ccc3c(c2)CC[C@H](C)N3C(=O)c2ccc(O)cc2O)c(C)n1
16,1000 nM,C[C@H]1CCc2cc(-c3nccc4occc34)ccc2N1C(=O)c1ccc(O)cc1O
17,1000 nM,Cc1cc2cc(F)ccc2nc1-c1ccc2c(c1)CC[C@H](C)N2C(=O)c1ccc(O)cc1O
18,1000 nM,Cc1ccc(-c2ccc3c(c2)CC[C@H](C)N3C(=O)c2ccc(O)cc2O)c(Cl)c1
19,100 nM,Cc1ccc[n+]([O-])c1-c1ccc2c(c1)CC[C@H](C)N2C(=O)c1ccc(O)cc1O
20,100 nM,CCCc1cncnc1-c1ccc2c(c1)CC[C@H](C)N2C(=O)c1ccc(O)cc1O
21,1000 nM,C[C@H]1CCc2cc(-c3nc(-c4ccccc4)nc4ccccc34)ccc2N1C(=O)c1ccc(O)cc1O
22,100 nM,C[C@H]1CCc2cc(-c3ncccc3CO)ccc2N1C(=O)c1ccc(O)cc1O
23,1000 nM,C[C@H]1CCc2cc(-c3cnc4ccccc4n3)ccc2N1C(=O)c1ccc(O)cc1O
24,10 nM,Cc1cc(S(=O)(=O)NCc2ccccc2)cnc1-c1ccc2c(c1)CC[C@H](C)N2C(=O)c1ccc(O)cc1O
25,1000 nM,CCOc1ccc2nc(-c3ccc4c(c3)CC[C@H](C)N4C(=O)c3ccc(O)cc3O)c(C)cc2c1
26,100 nM,C[C@H]1CCc2cc(-c3nc(C(N)=O)nc4ccccc34)ccc2N1C(=O)c1ccc(O)cc1O

row,IC50,SMILES
1,100 nM,Cc1cnc(C)c(-c2ccc3c(c2)CC[C@H](C)N3C(=O)c2ccc(O)cc2O)n1
2,1000 nM,CCc1cc2ccccc2nc1-c1ccc2c(c1)CC[C@H](C)N2C(=O)c1ccc(O)cc1O
3,100 nM,CCc1cnc(C)nc1-c1ccc2c(c1)CC[C@H](C)N2C(=O)c1ccc(O)cc1O
4,100 nM,CCOC(=O)c1nc(-c2ccc3c(c2)CC[C@H](C)N3C(=O)c2ccc(O)cc2O)c2ccccc2n1
5,1000 nM,Cc1c(-c2ccc3c(c2)CC[C@H](C)N3C(=O)c2ccc(O)cc2O)ccc2[nH]ncc12
6,10000 nM,C[C@H]1CCc2cc(-c3ccc(-c4ccccc4)cn3)ccc2N1C(=O)c1ccc(O)cc1O
7,100 nM,COc1ccccc1-c1ccc2c(c1)CC[C@H](C)N2C(=O)c1ccc(O)cc1O
8,100 nM,COc1ccc2nc(-c3ccc4c(c3)CC[C@H](C)N4C(=O)c3ccc(O)cc3O)c(C)cc2c1
9,100 nM,CNc1nnc(-c2ccc3c(c2)CC[C@H](C)N3C(=O)c2ccc(O)cc2O)c2ccccc12
10,100 nM,CC(=O)Nc1ccc(-c2ccc3c(c2)CC[C@H](C)N3C(=O)c2ccc(O)cc2O)c(C)c1
11,1000 nM,Cc1cc2cc(Cl)ccc2nc1-c1ccc2c(c1)CC[C@H](C)N2C(=O)c1ccc(O)cc1O
12,1000 nM,C[C@H]1CCc2cc(-c3cccc(C#N)c3)ccc2N1C(=O)c1ccc(O)cc1O
13,10000 nM,C[C@H]1CCc2cc(-c3ccc(-c4ccccc4Cl)cn3)ccc2N1C(=O)c1ccc(O)cc1O
14,100 nM,C[C@H]1CCc2cc(-c3nc4ccccc4cc3CO)ccc2N1C(=O)c1ccc(O)cc1O
15,1000 nM,C[C@H]1CCc2cc(-c3ccccc3Cl)ccc2N1C(=O)c1ccc(O)cc1O
16,100 nM,Cc1nc(NS(C)(=O)=O)ccc1-c1ccc2c(c1)CC[C@H](C)N2C(=O)c1ccc(O)cc1O
17,100 nM,Cc1ccc(C)c(-c2ccc3c(c2)CC[C@H](C)N3C(=O)c2ccc(O)cc2O)n1
18,1000 nM,C[C@H]1CCc2cc(-c3ccc(Cl)cc3Cl)ccc2N1C(=O)c1ccc(O)cc1O
19,1000 nM,COc1ccc(OC)c(-c2ccc3c(c2)CC[C@H](C)N3C(=O)c2ccc(O)cc2O)c1
20,100 nM,Cc1nc(N)ccc1-c1ccc2c(c1)CC[C@H](C)N2C(=O)c1ccc(O)cc1O
21,100 nM,Cc1nc(-c2ccc3c(c2)CC[C@H](C)N3C(=O)c2ccc(O)cc2O)c2ccccc2n1
22,10 nM,Cc1ncc(C)c(-c2ccc3c(c2)CC[C@H](C)N3C(=O)c2ccc(O)cc2O)n1
23,1000 nM,Cc1cc2cccc(C)c2nc1-c1ccc2c(c1)CC[C@H](C)N2C(=O)c1ccc(O)cc1O
24,100 nM,Cc1cc2ccc(F)cc2nc1-c1ccc2c(c1)CC[C@H](C)N2C(=O)c1ccc(O)cc1O
25,1000 nM,C[C@H]1CCc2cc(-c3ccc(Cl)nc3)ccc2N1C(=O)c1ccc(O)cc1O
26,100 nM,Cc1nccnc1-c1ccc2c(c1)CC[C@H](C)N2C(=O)c1ccc(O)cc1O
